According to patent US9968650B2, “Modified viral structural protein with antiviral activity” (priority 2011, dated 2018):
Entries after “also recorded” stand apart in the source; their conditions may differ.

Legend:
Cp149 dimer interface = molecular target: T1, Cp149 dimer interface (Hepatitis B virus genotype D subtype adw, UniProt P03147); settings: cited from earlier work
T1 construct: (Cp149), which is the N-terminal first 149 residues of the core protein

HIV-1 CA = HIV-1 CA (Human immunodeficiency virus type 1 group M subtype B, UniProt P12493); settings: cited from earlier work
HIV-1 NL4-3 = settings: cited from earlier work
Gag = Gag (Human immunodeficiency virus type 1 group M subtype B, UniProt P12493); settings: cited from earlier work
HBV replication = assay: Southern blot analysis of encapsidated HBV DNA in transfected Huh7 cells; assay type: cell-based, Hepatitis B virus (HBV); settings: WT normalized to 100%, SD in parenthesis, * values at limit of detection
From the text: (§1) All HBV plasmids used in cell culture experiments were derived from subtype ayw (Genbank accession no. V01460). These plasmids express pgRNA under the control of the cytomegalovirus (CMV) immediate early promoter. […] Plasmids C^WT or C^V124W express core protein but not P or envelope proteins and lack a functional encapsidation signal, GFP protein was expressed from a separate plasmid (provided by Bill Sugden, UW-Madison). Details of construction and sequence of any plasmid will be provided upon request.
The human hepatoma cell line Huh7 was used to study HBV replication. Cells were grown in 60 mm plates at 37° C. in 5% CO2, in DMEM/F12 medium supplemented with 5% FBS (Invitrogen, Grand Island, N.Y.). Cells were approximately 75% confluent or greater at time of transfection. DNA transfections were performed using calcium phosphate precipitation. For experiments using WT^P+C+ and V124W^P+C+, 5 μg of total plasmid mass was transfected. Each transfection experiments were repeated three times independently. For V124W titration experiment, 2 μg WT^P+C+ and varied C^V124W (0 to 8 μg) were used. A filler plasmid pCMV-Sport6 was used to keep the total plasmid mass at 10 μg. 0.125 μg of the GFP expression plasmid was used in every transfection. Typically, medium containing the calcium phosphate precipitate was removed after 16 hours, fresh medium added, and the cultures were grown for an additional 96 hours.
Nucleic acid from cytoplasmic capsids was isolated as described previously. Briefly, cells were lysed in a solution containing 50 mM Tris, 1 mM EDTA, 0.2% NP40, pH 8.0. Nuclei were pelleted via centrifugation and supernatant was collected. A fraction of this lysate was used for detection of core protein and GFP. The remainder of the cytoplasmic lysate was treated with 45 units of micrococcal nuclease (Worthington Biochemicals, Lakewood, N.J.) in the presence of 2 mM CaCl2 to digest plasmid DNA and unencapsidated pgRNA, followed by treatment with 0.4% SDS and 0.4 mg/ml Pronase® (Roche, Nutley, N.J.) to digest nucleocapsids and P protein. Encapsidated nucleic acids were extracted with 1:1 phenokchloroform, precipitated with ethanol and NaCl, and re-suspended in 30 μl of a solution of 10 mM Tris, 0.1 mM EDTA, pH 8.0.
An aliquot of viral DNA was electrophoresed through a 1.25% agarose gel. DNA was denatured and neutralized in situ in 0.5 N NaOH/1.5 M NaCl and 1 M Tris/1.5 M NaCl, respectively, followed by passive transfer to Hybond-N (GE® Lifesciences, Piscataway, N.J.) in 10×SSC. Viral DNA was detected on the membrane using an equimolar pool of oligonucleotides that detected (−) DNA. […] Levels of DNA were measured using the software ImageQuant® 5.2 (Molecular Dynamics). DNA levels were normalized to GFP levels as determined previously by western blot. […]

core protein = assay: Western blot analysis of core protein level in transfected Huh7 cells; assay type: cell-based, Hepatitis B virus (HBV); settings: normalized to GFP, WT = 100%, SD in parenthesis
From the text: as §1
The human hepatoma cell line Huh7 was used to study HBV replication. Cells were grown in 60 mm plates at 37° C. in 5% CO2, in DMEM/F12 medium supplemented with 5% FBS (Invitrogen, Grand Island, N.Y.). […]
A fraction of cytoplasmic lysate was used to run a 15% SDS-PAGE, followed by transfer of proteins to PVDF-FL (Millipore®, Billerica, Mass.) in methanol transfer buffer (details of SDS-PAGE and transfer solutions provided upon request). […] Core protein was detected using a rabbit α-core antibody (Austral Biologicals®, San Ramon, Calif.) at a dilution of 1:500, and a goat α-rabbit IRDye800CW antibody (Li-Cor®) at a dilution of 1:10,000. GFP was detected using a mouse α-GFP antibody (Santa Cruz® Biotechnology, San Cruz, Calif.) at a dilution of 1:500, and a goat α-mouse IRDye680LT antibody (Li-Cor®) at a dilution of 1:10,000. […] Core levels were normalized to GFP levels for quantitation. […]

HBV capsid assembly [1] = molecular target: T2, HBV capsid assembly (Hepatitis B virus genotype D subtype adw, UniProt P03147); assay: Extent of core protein assembly without HAP12 by size exclusion chromatography; assay type: biochemical
T2 construct: (Cp149), which is the N-terminal first 149 residues of the core protein; made in house; host or cells: E. coli BL21 (DE3) (printed for V124W; WT 'as previously described')
T2 sequence (P03147 1-149): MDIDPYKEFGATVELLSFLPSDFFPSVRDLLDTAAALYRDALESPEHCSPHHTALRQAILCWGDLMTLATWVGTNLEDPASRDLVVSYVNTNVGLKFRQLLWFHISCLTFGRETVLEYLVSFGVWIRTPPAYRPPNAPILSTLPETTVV
Description: (§2) The adyw strain of HBV Cp149-pET11c (Genbank accession no. J02202.1) construct was mutated to Cp149-V124W (GTG to TGG) with the QuikChange mutagenesis kit (Stratagene). […] V124W purification was performed as previously described for HBV Cp149-WT purification. Based on the biochemical studies in this paper, in the re-assembly step, using 50 mM NaCl instead of 500 mM NaCl to induce re-assembly yielded more capsid with slightly more aggressive assembly activity. Protein concentration was determined using an extinction coefficient of 70,025 M^−1 cm^−1 per V124W dimer at 280 nm, calculated by ExPASy Proteomics Server based on the protein sequence and assuming one disulfide bond per dimer WT dimer was purified exactly as previously described. The extinction coefficient of WT dimer is 60,900 M^−1 cm^−1 at 280 nm. Before assembly studies, frozen protein stock was dialyzed into 50 mM HEPES, pH 7.5 for at least 2×2 h at 4° C. The standard assembly buffer was 50 mM HEPES, pH 7.5 at 23° C. with varied NaCl concentrations. Protein stock was treated with 1% to 5% β-mercaptoethanol for 20 min before assembly.
(§3) To test for resistance to HAP molecules, 10 μM protein with varied HAP12 concentrations (2.5 to 60 μM) was induced to assemble at 50 mM NaCl. Before adding 10× NaCl, protein was incubated with HAP12 at 23° C. for 20 min. Each reaction was incubated at 23° C. for 24 h to equilibrate. Under these conditions, 24 h was long enough to allow reactions to reach equilibrium. Capsid, abnormal structures and dimer concentrations were determined by SEC as described above.

HBV capsid assembly [2] = assay: as above; assay type: biochemical, Hepatitis B virus (HBV); settings: 10 μM protein, 50 mM NaCl, 23° C., without HAP12
Description: as §2, §3

HBV capsid assembly [3] = assay: Size exclusion chromatography of equilibrium capsid assembly and calculation of thermodynamic parameters; assay type: biochemical, Hepatitis B virus (HBV); settings: 100 mM NaCl, 23° C.; for pseudo-critical concentration: 72 h equilibration
Description: as §2
WT and V124W at varied concentrations (WT, 40 to 80 μM; V124W, 2.5 to 30 μM), were induced to assemble at 100 mM NaCl to equilibration for 72 h or longer at 23° C. […] Capsid and dimer concentrations in assembly reactions were determined by size exclusion chromatography (SEC) through a 21 ml Superose 6 column. ΔGcontact and KD,apparent were calculated as previously described. KD,apparent was the average of the equilibrium dimer concentrations which were nearly constant.

HBV capsid assembly [4] = assay: 90° light scattering assembly kinetics of core protein alone; assay type: biochemical, Hepatitis B virus (HBV); settings: 10 μM protein, 50 mM NaCl, first 800 seconds
Description: Light scattering was monitored at 90° using 400 inn excitation and emission wavelength with a Photon Technology International fluorometer for at least 800 seconds at 23° C. 10 μM protein (WT or V124W) was incubated with or without 20 μM HAP12 for 20 min prior to adding equal volume of 2× NaCl to a final concentration of 50 mM NaCl. Each sample was repeated 3-4 times independently.
90° Light scattering is a well-established method to monitor the virus assembly kinetics because of the significant difference between the size of the capsid and the dimer. HBV core protein assembly is induced by increasing the ionic strength in vitro, which is achieved by adding NaCl to the reaction system. Higher ionic strength leads to assembly faster and further due to the stronger association energy between dimers.

T1 sequence (P03147 1-149): as above

COC(=O)C1=C(C)NC(c2ncc(F)cc2F)=N[C@H]1c1ccc(F)cc1Cl [BAY41-4109]
HAP stoichiometry necessary to generate aberrant structures (Cp149 dimer interface; pure BAY41-4109): greater than one HAP per two dimers

Cc1[nH]c2ccccc2c1CC(=O)N[C@@H](Cc1ccccc1)C(=O)N(C)c1ccccc1 [PF-3450074]
rate of CA multimerization (HIV-1 CA): significant increase | antiviral activity against HIV (HIV-1 NL4-3): inhibit HIV replication | Gag association (Gag): does not inhibit

WT: wild type HBV core protein; Cp149 is the N-terminal 149-residue assembly domain, used as control
dlDNA (HBV replication): 100% (27%) | ssDNA (HBV replication): 100% (19%) | total DNA (HBV replication): 100% (19%) | rcDNA (HBV replication; three independent transfections): 100% (46%) | core protein (core protein): 100% (39%) | association energy at the dimer interface (Cp149 dimer interface; 150 mM NaCl 37° C., without HAP): -3.87 kcal/mol | capsid formation at 150 mM NaCl (HBV capsid assembly [1]; 10 μM protein, 150 mM NaCl (data not shown)): did not observe any capsid formation | concentration needed to see any assembly (HBV capsid assembly [1]; under similar conditions (NaCl-induced assembly, FIG. 10)): 45 µM | extent of assembly (dimers assembled into capsids) (HBV capsid assembly [2]): no assembly | extent of assembly (dimers assembled into capsids) (HBV capsid assembly [2]; listed as wild type Cp149): does not assemble at all; also recorded: no assembly | ΔGcontact (HBV capsid assembly [3]): -2.74 ± 0.04 kcal/mol | pseudo-critical concentration (HBV capsid assembly [3]): about 43 μM | pseudo-critical concentration (HBV capsid assembly [3]; listed as wild type Cp149): 43.6 ± 5.1 µM | ΔGcontact (HBV capsid assembly [3]; listed as wild type Cp149): -2.74 ± 0.04 kcal/mol | Kd (HBV capsid assembly [3]; read-out: KD, apparent): 43.3 ± 4.97 µM | assembly kinetics without HAP12 (in words) (HBV capsid assembly [4]): did not assemble
